30 compounds from the SangsterLogP compilation can be followed below.

For the compound `C=CCN(C(=O)CCl)c1cccc(Cl)c1`, the logP came out at 3.38.

With `C=CCN(C(=O)CSP(=S)(OC)OC)c1ccccc1C`, the logP amounted to 2.93.

For `COP(=S)(OC)SCC(=O)N(c1ccccc1)C(C)C`, the logP was 2.5.

Take `CCOC(=O)CN(C(=O)CSP(=S)(OC)OC)c1ccc(Cl)cc1`: the logP is 2.15.

Compound `COP(=S)(OC)SCC(=O)N(Cc1ccccc1)c1ccc(Cl)cc1` returned a logP of 4.09.

For `CCCN(C(=O)CCl)c1ccc(Cl)cc1`, the logP came to 3.62.

As to `C=CCN(C(=O)CSP(=S)(OC)OC)c1ccc(Cl)cc1`, the logP stood at 3.19.

Turning to `CCOC(=O)[C@H](C)N(C(=O)CCl)c1ccccc1`, the logP stood at 1.79.

Turning to `CCN(C(=O)CCl)c1ccccc1C`, the logP came to 2.82.

Consider `CCN(C(=O)CSP(=S)(OC)OC)c1ccc(C)cc1`, for which the logP was 2.81.

With `COP(=S)(OC)SCC(=O)N(Cc1ccccc1)c1ccccc1`, the logP is 3.13.

Consider `CCOC(=O)CN(C(=O)CCl)c1ccc(Cl)cc1`, for which the logP was 2.15.

For `CCOC(=O)C(C)N(C(=O)CSP(=S)(OC)OC)c1cccc(Cl)c1` (stereo not given), the logP is 3.68.

Take `CCOP(=S)(Oc1ccc(Cl)cc1Cl)SCC(=O)N(CC)c1ccc(C)cc1` (stereo not given): the logP came to 2.82.

Consider `CCOC(=O)[C@H](C)N(C(=O)CCl)c1ccc(Cl)cc1`, for which the logP was 2.75.

Regarding `C=CCN(C(=O)CCl)c1ccc(Cl)cc1`, the logP came to 3.19.

`CCN(C(=O)CSP(=S)(OC)OC)c1ccccc1` showed a logP of 2.26.

The compound `CCOC(=O)CN(C(=O)CCl)c1cccc(Cl)c1` came in with a logP of 2.42.

For the compound `CCOP(=S)(Oc1ccc(Cl)cc1Cl)SCC(=O)N(CC)c1ccccc1C` (stereo not given), the logP is 2.82.

Turning to `CCN(C(=O)CSP(=S)(OC)OC)c1ccccc1C`, the logP stood at 2.82.

Take `O=C(CCl)N(Cc1ccccc1)c1cccc(Cl)c1`: the logP stood at 4.28.

Take `CCN(C(=O)CCl)c1ccccc1`: the logP turned out to be 2.26.

The compound `C=CCN(C(=O)CSP(=S)(OC)OC)c1ccc(C)cc1` registered a logP of 2.92.

With `CCOC(=O)CN(C(=O)CSP(=S)(OC)OC)c1ccccc1`, the logP is 1.19.

Turning to `O=C(CCl)N(Cc1ccccc1)c1ccccc1`, the logP was found to be 3.13.

With `O=C(CCl)N(Cc1ccccc1)c1ccc(Cl)cc1`, the logP is 4.09.

For `CCOC(=O)C(C)N(C(=O)CSP(=S)(OC)OC)c1ccccc1` (stereo not given), the logP worked out at 1.79.

`CCOC(=O)C(C)N(C(=O)CSP(=S)(OC)OC)c1ccc(Cl)cc1` (stereo not given) returned a logP of 2.75.

With `C=CCN(C(=O)CCl)c1ccc(C)cc1`, the logP stood at 2.92.

Regarding `CCOC(=O)CN(C(=O)CSP(=S)(OC)OC)c1ccccc1Cl`, the logP was 2.42.

As a reminder, the logP is a log measure of how a compound divides between an organic and an aqueous phase. High values mean a more lipophilic compound, low ones a more hydrophilic compound.
